Some results are limits rather than exact numbers.

In assay [1] the target is T1, Serine/threonine-protein kinase ICK (Homo sapiens) (UniProt Q9UPZ9).
T1 sequence (whole entry): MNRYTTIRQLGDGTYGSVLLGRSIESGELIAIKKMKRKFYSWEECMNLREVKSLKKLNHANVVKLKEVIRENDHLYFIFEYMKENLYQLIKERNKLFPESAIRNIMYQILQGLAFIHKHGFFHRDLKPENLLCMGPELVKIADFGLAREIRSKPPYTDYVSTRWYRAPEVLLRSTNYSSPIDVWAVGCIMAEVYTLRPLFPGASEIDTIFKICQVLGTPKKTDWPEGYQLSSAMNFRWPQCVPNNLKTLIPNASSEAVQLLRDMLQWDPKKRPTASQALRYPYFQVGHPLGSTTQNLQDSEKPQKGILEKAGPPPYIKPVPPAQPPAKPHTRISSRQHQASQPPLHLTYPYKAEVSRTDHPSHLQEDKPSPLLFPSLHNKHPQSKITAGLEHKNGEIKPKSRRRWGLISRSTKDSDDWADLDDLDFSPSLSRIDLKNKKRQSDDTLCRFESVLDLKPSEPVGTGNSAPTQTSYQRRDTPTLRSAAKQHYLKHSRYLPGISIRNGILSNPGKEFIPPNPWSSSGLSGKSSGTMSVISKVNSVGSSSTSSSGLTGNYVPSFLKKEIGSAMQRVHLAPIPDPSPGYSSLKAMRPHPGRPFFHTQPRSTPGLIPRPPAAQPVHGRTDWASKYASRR
The experiment in a line: Selectivity interaction (LanthaScreen Eu Kinase Binding Assay) EUB0001632a ICK. The following applies: at 10 µM.

The target of assay [2] is Serine/threonine-protein kinase SBK1 (Homo sapiens) (UniProt Q52WX2). Briefly: Selectivity interaction (KinomeScan (DiscoverX)) EUB0000607a SBK1. Conditions: at 10 µM.
The target of assay [3] is T2, Serine/threonine-protein kinase Chk1 (Homo sapiens) (UniProt O14757).
T2 sequence (whole entry): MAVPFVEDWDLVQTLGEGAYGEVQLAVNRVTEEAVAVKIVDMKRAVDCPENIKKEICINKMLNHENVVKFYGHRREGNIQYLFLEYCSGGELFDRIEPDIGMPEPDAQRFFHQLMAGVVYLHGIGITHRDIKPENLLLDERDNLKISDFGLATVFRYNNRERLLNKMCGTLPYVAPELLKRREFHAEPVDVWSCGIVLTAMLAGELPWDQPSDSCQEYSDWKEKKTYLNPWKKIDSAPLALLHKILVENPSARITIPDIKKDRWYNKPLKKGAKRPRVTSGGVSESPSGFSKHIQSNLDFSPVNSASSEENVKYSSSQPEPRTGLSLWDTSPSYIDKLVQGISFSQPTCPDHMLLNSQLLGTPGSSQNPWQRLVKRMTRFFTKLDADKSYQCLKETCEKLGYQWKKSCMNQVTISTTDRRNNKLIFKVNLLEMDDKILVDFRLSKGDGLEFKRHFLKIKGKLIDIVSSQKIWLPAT
Briefly: Selectivity interaction (Kinase screening (Upstate/Millipore)) EUB0000604a CHEK1.

In assay [4] the target is Homeodomain-interacting protein kinase 4 (Homo sapiens, UniProt Q8NE63). Briefly: Selectivity interaction (Enzymatic assay (Eurofins)) EUB0001049a HIPK4.
The target of assay [5] is T3, Protein kinase C epsilon type (Homo sapiens) (UniProt Q02156).
T3 sequence (whole entry): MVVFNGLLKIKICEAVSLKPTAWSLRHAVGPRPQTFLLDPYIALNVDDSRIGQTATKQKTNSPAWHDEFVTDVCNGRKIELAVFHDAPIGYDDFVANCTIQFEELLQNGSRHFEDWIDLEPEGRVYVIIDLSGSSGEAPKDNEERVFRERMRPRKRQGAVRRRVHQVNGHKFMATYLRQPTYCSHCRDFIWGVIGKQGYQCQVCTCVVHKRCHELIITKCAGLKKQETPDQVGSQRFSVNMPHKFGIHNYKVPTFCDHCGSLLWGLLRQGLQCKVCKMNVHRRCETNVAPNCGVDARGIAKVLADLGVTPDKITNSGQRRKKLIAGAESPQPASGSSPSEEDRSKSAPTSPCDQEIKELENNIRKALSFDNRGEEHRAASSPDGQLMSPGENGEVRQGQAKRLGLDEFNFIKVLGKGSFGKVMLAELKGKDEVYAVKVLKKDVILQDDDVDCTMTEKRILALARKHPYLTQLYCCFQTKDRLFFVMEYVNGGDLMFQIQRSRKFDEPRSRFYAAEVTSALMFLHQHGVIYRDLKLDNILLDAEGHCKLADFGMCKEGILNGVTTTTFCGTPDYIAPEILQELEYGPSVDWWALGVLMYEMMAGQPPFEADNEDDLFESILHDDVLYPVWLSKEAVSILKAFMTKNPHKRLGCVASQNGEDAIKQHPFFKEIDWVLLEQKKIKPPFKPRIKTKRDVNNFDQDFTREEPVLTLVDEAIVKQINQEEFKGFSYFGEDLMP
The experiment in a line: Selectivity interaction (KinomeScan (DiscoverX)) EUB0000655a PRKCE. The following applies: at 10 µM.

The target of assay [6] is T4, Serine/threonine-protein kinase RIO1 (Homo sapiens) (UniProt Q9BRS2).
T4 sequence (whole entry): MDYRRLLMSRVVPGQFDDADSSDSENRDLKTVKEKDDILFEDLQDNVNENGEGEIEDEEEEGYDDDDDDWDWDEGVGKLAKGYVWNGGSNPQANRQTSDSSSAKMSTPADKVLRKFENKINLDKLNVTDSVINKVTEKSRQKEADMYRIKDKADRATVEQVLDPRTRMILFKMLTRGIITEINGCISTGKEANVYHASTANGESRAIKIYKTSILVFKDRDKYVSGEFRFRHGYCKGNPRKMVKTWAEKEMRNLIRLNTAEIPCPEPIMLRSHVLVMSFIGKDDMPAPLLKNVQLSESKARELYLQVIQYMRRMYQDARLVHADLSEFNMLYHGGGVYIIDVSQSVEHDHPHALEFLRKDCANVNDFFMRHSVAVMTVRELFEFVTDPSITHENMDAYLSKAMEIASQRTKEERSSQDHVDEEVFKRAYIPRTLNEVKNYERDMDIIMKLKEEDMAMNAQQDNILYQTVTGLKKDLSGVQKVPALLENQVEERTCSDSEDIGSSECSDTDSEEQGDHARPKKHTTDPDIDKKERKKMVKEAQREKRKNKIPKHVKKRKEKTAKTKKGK
Briefly: Selectivity interaction (KinomeScan (DiscoverX)) EUB0001079a RIOK1. Conditions: at 1 µM.

Chain of Homeodomain-interacting protein kinase 4 (Q8NE63 whole entry): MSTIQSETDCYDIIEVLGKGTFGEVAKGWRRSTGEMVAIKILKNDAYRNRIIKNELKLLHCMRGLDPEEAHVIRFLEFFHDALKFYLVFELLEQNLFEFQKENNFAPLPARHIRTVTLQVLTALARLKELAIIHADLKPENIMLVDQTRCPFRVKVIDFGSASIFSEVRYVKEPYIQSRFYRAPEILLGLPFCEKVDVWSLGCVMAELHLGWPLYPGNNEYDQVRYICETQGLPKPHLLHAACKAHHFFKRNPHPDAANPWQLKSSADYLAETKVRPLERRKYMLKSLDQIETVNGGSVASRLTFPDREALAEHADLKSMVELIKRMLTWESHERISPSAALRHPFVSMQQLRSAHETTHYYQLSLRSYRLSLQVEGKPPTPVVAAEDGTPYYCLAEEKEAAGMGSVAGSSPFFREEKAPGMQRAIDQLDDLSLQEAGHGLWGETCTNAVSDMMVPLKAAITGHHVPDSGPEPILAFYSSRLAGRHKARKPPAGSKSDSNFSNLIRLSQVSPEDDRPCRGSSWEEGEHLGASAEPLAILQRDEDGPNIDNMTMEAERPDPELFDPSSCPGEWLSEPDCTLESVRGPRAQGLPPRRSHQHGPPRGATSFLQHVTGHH
Chain of Serine/threonine-protein kinase SBK1 (Homo sapiens) (Q52WX2 whole entry): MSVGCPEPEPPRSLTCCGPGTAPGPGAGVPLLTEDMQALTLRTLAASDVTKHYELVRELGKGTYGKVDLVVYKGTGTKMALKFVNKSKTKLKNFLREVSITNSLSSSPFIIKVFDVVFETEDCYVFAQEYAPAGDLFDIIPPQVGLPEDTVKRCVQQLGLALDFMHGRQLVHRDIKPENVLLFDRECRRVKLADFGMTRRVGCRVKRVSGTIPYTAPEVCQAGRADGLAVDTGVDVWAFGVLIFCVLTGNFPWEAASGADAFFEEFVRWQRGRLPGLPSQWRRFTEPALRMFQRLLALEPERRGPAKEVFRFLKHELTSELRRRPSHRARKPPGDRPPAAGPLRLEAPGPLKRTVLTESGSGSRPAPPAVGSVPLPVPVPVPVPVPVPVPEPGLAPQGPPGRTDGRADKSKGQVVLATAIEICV

`Cn1cc(-n2cnc3c(NCc4nc5cc(Cl)c(Cl)cc5[nH]4)nc(N4CCOCC4)nc32)cn1`: the % of inhibition in assay [1] was -3.44%. In assay [2], `CNC(=O)Nc1ccc(-c2nc(N3CC4CCC(C3)O4)c3cnn(C4CCC5(CC4)OCCO5)c3n2)cc1` came in with a % of control of 100%. On to `Cc1cnc(Nc2ccc(F)cc2Cl)nc1-c1c[nH]c(C(=O)N[C@H](CO)c2cccc(Cl)c2)c1`, for which the % of inhibition in assay [3] was 40%.

For `COc1cc(Nc2nc(C)cc(-c3cnn4nc(OC)ccc34)n2)cc(C(F)(F)F)c1`, the IC50 in assay [4] is greater than 10 µM. `CN(C)CCOc1ccc(-c2nc(-c3ccncc3)c(-c3ccc4c(c3)CC/C4=N\O)[nH]2)cc1`: in assay [5], the % of control was 100%. In the case of `Nc1cnc(N2CCc3cc(S(=O)(=O)Nc4c(F)cc(Cl)cc4F)cc(N4CCCC4=O)c32)nc1` [TP-020n], the % of control in assay [6] turned out to be 100%.

Source of the values: ChEMBL document CHEMBL5465560, “Selectivity Literature for EUbOPEN Chemogenomic Library” (2024).
